Experimental findings from patent US5747506A, “Isoquinoline compounds, compositions containing them and their pharmaceutical uses” (Novartis AG, priority 1993, dated 1998) are described below.

Structures are written as SMILES. Like-named read-outs stand apart in the source and are kept apart here.

Data set [1] relates to methacholine induced bronchoconstriction. Kind of data set: TEST J: Suppression of Methacholine (MeCH) Induced Broncho-Constriction in the Rhesus Monkey. The format is in vivo. Conditions: hydrogen-oxalate salt. The procedure: TEST J: Suppression of Methacholine (MeCH) Induced Broncho-Constriction in the Rhesus Monkey
Male rhesus monkeys (body weight 10.3-13.2 kg) are anesthetized with ketamine (20 mg/kg i.m., initial) and maintained with thiopental (8 mg/kg/h i.v.) via an indwelling catheter in the left saphenous vein, throughout the experimental procedure. Animals are allowed to breathe spontaneously, and are placed in the left lateral incumbent position. The larynx, eppiglottis and pharynx are anesthetized (topical xylocaine) allowing introduction and placement of a cuffed 4.5 mm pediatric endotracheal tube.
MeCH is administered as an aerosol (saline vehicle: aerosol generated by a nebulizer operated under an airflow of 6 l/min, mean particle size of 3.5 μm) with a 2 minute exposure, tidal breathing. All tests employ a 0.6 mg/ml solution or 2.5 mg/ml solution in the case of poor MeCH responders. MeCH bronchoconstrictor tests are spaced 30 min apart, with administration of test substance (in a lactose vehicle suspension, 1 mg/ml, 1 ml administered under bronchoscopic control, 1 cm above the carina) 15 min prior to MeCH challenge.
Test substance is administered in a cumulative manner. Bronchodilator activity is estimated as the % inhibition of bronchoconstrictor response to MeCH on resistance.

Data set [2] deals with lymphocytes from the spleen of Balb/c and CBA mice. As to the kind of experiment: TEST L: Murine Mixed Lymphocyte Reaction. The format is cell-based. Conditions: Mus musculus, 120 h, thymidine incorporation, 5 days, hydrogen-oxalate salt. How it is done:
TEST L: Murine Mixed Lymphocyte Reaction
Ca. 0.5×10^6 lymphocytes from the spleen of female (8-10 weeks) Balb/c mice are incubated for 5 days in 0.2 ml cell growth medium with ca. 0.5×10^6 lymphocytes from the spleen of female (8-10 weeks) CBA mice. Test substance is added to the medium at various concentrations. Activity is assessed by ability to suppress proliferation associated DNA synthesis as determined by incorporation of radiolabelled thymidine.
(Dividing cells build labelled thymidine or BrdU into new DNA.)

In data set [3] the test system is human eosinophils. Kind of data set: TEST B: Inhibition of Eosinophil Activation by fMLP (oxidative burst, chemiluminescence). It is filed as cell-based. Conditions: fMLP 1 μM, hydrogen-oxalate salt. The procedure:
TEST B: Inhibition of Eosinophil Activation by formyl-MetLeuPhe (fMLP)
Purified human eosinophils (10^4 /well in 0.2 ml HBSS) are stimulated with fMLP (1 μM) in the presence of lucigenin (25 μM). Inhibition of the oxidative burst (measured as changes in chemiluminescence) is determined from dose response curves using the logistic equation.

Data set [4] in a line: hemodynamics, plasma glucose and tolerability in conscious dogs. It is filed as in vivo, dog. Conditions: hydrogen-oxalate salt.
For data set [5], the system named is SRS-A induced bronchoconstriction. As to the kind of experiment: TEST H experiment 2: Suppression of SRS-A Induced Bronchoconstriction (tracheal instillation, inhaled ovalbumin). Conditions: Cavia porcellus, i.t., hydrogen-oxalate salt. It is filed as in vivo, guinea pig (Dunkin-Hartley). How it is done:
TEST H: Suppression of SRS-A Induced Bronchoconstriction
Guinea pigs (Dunkin-Hartley, male, 400-600 g) are anesthethized with phenobarbital (100 mg/kg i.p.) and pentobarbital (30 mg/kg i.p.) and paralyzed with gallamine (100 mg/kg i.m.) Animals are ventilated via a tracheal cannula (8 ml/kg, 1 Hz) with a mixture of air and oxygen (45:55 v/v). Blood pressure and heart rate are recorded at the carotid artery. Ventilation is monitored by a Fleisch flow transducer in line with the inspiratory circuit. When making measurements of flow, coincident pressure changes in the thorax are monitored directly via an intrathoracic trochar, permitting display of differential pressure relative to the trachea. From this information in relation to flow and differential pressure, resistance [R1 ] and compliance [Cdyn ] are calculated using a digital respiratory analyzer for each respiratory cycle.
Test animals are passively sensitized 24 hrs. prior to testing by administration of homologous anti-ovalbumin antiserum (1 ml i.v.). […] Allergen challenge is achieved by administration of ovalbumin (OA) and the resultant bronchoconstrictor response is used as a functional read-out of SRS-A activity.
2) In the second, animals are challenged with OA (1.0 or 1.8 mg/ml inhaled over 60 breaths) and the effect of test compound, administered at varying dosage directly into the lung by tracheal instillation, is measured.

For data set [6], the system named is PDE IV. As to the kind of experiment: inhibition of PDE IV added to plasma after administration to conscious dogs. It is filed as in vivo. Conditions: up to 0.3 mg/kg i.v. or 0.6 mg/kg p.o., hydrogen-oxalate salt.
Data set [7] concerns bacterial endotoxin (LPS) induced airways obstruction and lethality. Kind of data set: TEST E: Bacterial Endotoxin [LPS] Induced Lethality in the Guinea Pig. Conditions: 100/μg/kg/min.; hydrogen-oxalate salt. It is filed as in vivo. How it is done: TEST E: Bacterial Endotoxin [LPS] Induced Lethality in the Guinea Pig
Guinea-pigs are anesthetized by intraperitoneal injection of sodium phenobarbitone (100 mg/kg.) supplemented with sodium pentobarbitone (30 mg/kg) and paralyzed by intramuscular injection of gallamine (10 mg/kg). Animals are ventilated (8 ml/kg, 1 Hz) with a mixture of air and oxygen (40:60, v/v) via a tracheal cannula. Ventilation is monitored at the trachea by a pneumotachograph connected to a differential pressure transducer. […] Blood pressure and heart rate are recorded from the carotid artery using a pressure transducer and a cannula is introduced into the right jugular vein to allow intravenous infusion of test substance min prior to and concomitantly with infusion of LPS at a constant rate (3.0 ml/hr to give 10 mg/kg/hr) from an infusion pump. The left jugular vein is cannulated for administration of (±) propranolol (1 mg/kg) injected as an intravenous bolus. […] Experimental data is stored continuously and, on termination of an experiment, experimental traces or processed data are plotted.
Infusion of [±propanolol] ensures consistent susceptibility to LPS. In anesthetized animals pre-treated with [±] propanalol, infusion of LPS in the above model induces progressive airway obstruction. Death consequential to endotoxin shock usually occurs within ca. 1 hr of terminating LPS infusion.

The test system of data set [8] is cardiovascular effects. Kind of data set: Doppler aortic flow test in the rabbit. It is filed as in vivo. Conditions: hydrogen-oxalate salt. An excerpt:
Thus in a series of experiments using the Doppler aortic flow test in the rabbit [J. Pharmacol. Meth.

The nature of data set [9]: stock solution of the hydrogen-oxalate salt. Conditions: 10% Tween in 80% abs. C2H5OH. It is filed as physicochemical. How it is done:
[All experiments described below are suitably done using the hydrogen-oxalate salt of the test compound, e.g. compound of example 1. In the case of the example 1 compound a stable 30 mM stock solution of the hydrogen-oxalate salt may be prepared with 10% Tween in 80% abs. C2 H5 OH. For pharmacological experiments it should be diluted at least 1:10,000.]

The mark [10] stands for this setting: up to 0.3 mg/kg i.v. or 0.6 mg/kg p.o.

Usually IC50 stands for the concentration at which inhibition is half-maximal.

`CCc1cc2cc(OCCO)c(OC)cc2c(-c2cc(OC(C)C)cc(OC(C)C)c2)n1` [Example 1, 1-(3,5-diisopropoxyphenyl)-3-ethyl-6-(2-hydroxyethoxy)-7-methoxy-isoauinoline]: the ED20 in [1] (Macaca mulatta, inhaled or nasal, MeCH aerosol, test substance in lactose suspension) amounted to 0.0414 ± 0.0099 µg/kg. Besides, the “potency less than that of Albuterol (TEST J)” value in data set [1] (times less potent than Albuterol) is recorded as “ca. 3.5 ×”. Moreover, the IC50 in data set [2] is 12 ± 9 nM. Moreover, the 50% inhibitory concentration (IC50) in data set [3] came to 60 ± 30 nM. Also, the tolerability result in data set [4] (all dosages) is on record as “generally well tolerated”. In addition, in [4] (setting [10]), the “change in heart rate” value was “no or only minimal change”, the “change in mean arterial pressure” value is on record as “no or only minimal change” and the “change in plasma glucose concentrations” value was “no or only minimal change”. Besides, the ED50 in [5] (ovalbumin 1 mg/ml, read-out: ED50 vs. ovalbumin @1 mg/ml) came to 5 µg/kg. Also, the ED50 in data set [5] (ovalbumin 1.8 mg/ml, read-out: ED50 vs. ovalbumin @1.8 mg/ml) stood at 50 µg/kg. The “inhibition of PDE IV added to plasma” value in data set [6] was “substantial and long-lasting inhibition”. Moreover, in data set [7], the “lethality (TEST E)” value was “no animals dying” and the “protection (TEST E)” value is reported as “COMPLETE PROTECTION”. The “heart rate (rabbit)” value in data set [8] (of the order of 1 mg/kg) was “only slight decrease in heart rate”. In data set [8] (up to the order of 0.3 mg/kg), the cardiovascular side effects entry is “no cardiovascular side effects”. The stable stock solution in data set [9] worked out at 30 mM.
